Measurements published in patent publication US11439646B2, “Anti-proliferative agents for treating PAH” (Pfizer Inc., priority 2016, dated 2022).

Experiments:
[1] = test system: Rat MCT-induced PAH Model; assay: Rat MCT-induced PAH model (hemodynamics, histomorphometry, IHC); type: in vivo
Method: Rat MCT-induced PAH Model: Male Sprague-Dawley rats (Charles River Laboratories) (260-280 g; vehicle control group, n=6; all other groups, n=15) received MCT (50 mg/kg, SC; 1 ml/kg BVV) dissolved in vehicle (33.3% 1 N HCl, 14.8% 1 N NaOH, 52.2% diH2O) or vehicle alone on day 0. Sildenafil (50 mg/kg/dose; BID) was administered (5 ml/kg, PO) either prophylactically from days 0-28 or therapeutically from days 14-28. Palbociclib (100 mg/kg; QD) was administered therapeutically (days 14-28). Both sildenafil and palbociclib were resuspended in vehicle (0.5% methylcellulose) and administered orally (5 ml/kg). On day 28, animals were anesthetized via isoflurane, hemodynamic parameters were evaluated, and tissues harvested after euthanasia.
Hemodynamic measurements—monocrotaline (MCT) study: On day 28, animals were anesthetized via 2% isofluorane in positive pressure ventilator. Pulmonary hemodynamics were measured using a pre-calibrated pressure transducer in isoflurane positive-pressure ventilated animals. Steady-state pulmonary and systemic arterial pressures were measured using a Millar Solid State Mikro-tip catheter (Millar Instruments, Houston, Tex.) introduced to the pulmonary arterial trunk at the level of the aortic arch via the right carodid artery. Hemodynamic values were automatically calculated by the physiological data acquisition system, ADI Chart (ADI Instruments, Colorado Springs, Colo.) (Plato BioPharma).
(§1) Measurement of RV hypertrophy. After collection of the heart at necropsy, the atria and great vessels were removed. The RV was separated from the LV and S. The wet weights of the RV and LV+S were measured to calculate the Fulton Index.
(§2) Tissue preparation. Under anesthesia, the animals were exsanguinated, and the pulmonary circulation flushed with oxygenated (animals from Example 3 [MCT]) or heparizined (animals from Example 4 [Su5416/Hx]) saline. Trachea, lungs, and heart were removed intact from thoracic cavity and placed in ice-cold saline. Right lung lobes were removed, weighed, and immediately flash frozen in liquid nitrogen. A 10 mL syringe filled with fixative (10% NBF) with attached blunt tip needle (20 g) was used to inflate the left lung lobe and the airway was tied off to keep it consistently expanded. The left lung was then immersion fixed in 10% NBF for 48 hrs and then transferred to 70% EtOH for ≤5 days.
(§3) Histomorphometric analysis. Three, 3-5 μm thick, transverse sections of the left lung lobe were used for histomorphometric analysis. Overall disease severity scores were determined by light microscopic evaluation of hematoxylin and eosin (H&E)-stained lung sections by a board-certified veterinary pathologist. Scores ranged from 0 (absent), 1 (minimal), 2 (mild), 3 (moderate), 4 (marked) to 5 (severe) and were assigned according to the approximate percentage of the tissue affected by the tissue changes (inflammatory, degenerative, vascular and/or proliferative) characteristic of the PAH model. Average vessel wall thickness was evaluated using lung sections prepared with a modified Verhoeff-van Gieson elastin stain. Image analysis was performed using random field sampling (Visiopharm newCAST) of 10% of tissue area with observer-assisted identification of intra-acinar and pre-acinar vessels and application of a nucleator probe to measure vessel wall thickness. Fully muscularized intra-acinar vessel density was evaluated in a similar manner using dual αSMA/Ki67 IHC-stained sections and observer-assisted counting of ≥70% muscularized (i.e. SMA^+), transversely sectioned, ≤50 μm external diameter, intra-acinar vessels with an identifiable lumen. Vessel-associated Ki67^+ and pRb^+ cells were counted in αSMA/Ki67 IHC-and CD31/pRb IHC-stained lung sections, respectively, using random field sampling of 10% of tissue area and observer-assisted identification of Ki67^+ or pRb^+ cells associated with the walls (i.e. in the intima or media) of vessels 100 μm external diameter.
Immunohistochemistry. […]

rat Su5416/Hx PAH model = assay: Rat SuHx (Su5416/hypoxia)-induced PAH model (hemodynamics, histomorphometry, IHC); type: in vivo; settings: for lung weight vs vehicle/Su5416/Hx group / vessel-associated Ki67+ cells in the pulmonary vasculature (IHC) / vessel-associated pRb+ cells in the pulmonary vasculature (IHC): days 7 to 28; for MPAP: days 7 to 28, FIG. 4b; for Fulton Index: days 7 to 28, FIG. 4c; for muscularized intra-acinar vessel density relative to vehicle/Su5416/Hx group: days 7 to 28, FIG. 4e; for DPAP: days 7 to 28, FIG. 4i; for heart weight vs vehicle/Su5416/Hx group: days 7 to 28, FIG. 4j; for average vessel wall thickness, intra-acinar and pre-acinar vessels: days 7 to 28, FIG. 4d
Method: SuHx-induced Pulmonary Arterial Hypertension: Sprague-Dawley rats were obtained from Charles River Laboratories (200-300 g; vehicle control, n=5; all other groups, n=10). Rats received Semaxinib dissolved in DMSO on day 0, followed by housing in low (13%) oxygen until day 28. Sildenafil (30 mg/kg/dose; BID), Riociguat (10 mg/kg, QD) or Palbociclib (100 mg/kg; QD) was administered in vehicle (0.5% methylcellulose) from days 7-28. Terminal hemodynamic evaluations and necropsy were conducted on day 28 in a manner similar to the MCT study.
Hemodynamic measurements Su/Hx study: On day 28, animals were anesthetized via intramuscular injection of ketamine/xylazine (80/10 mg/kg). A Millar catheter was inserted into the pulmonary artery and pulmonary pressure and hemodynamics were measured as described by Stringer et al., (1981) Catheterization of the pulmonary artery in the closed-chest rat. J. Appl. Physiol. 51, 1047-1050. Hemodynamic values were calculated using the NOTOCORD-Hem software (NOTOCORD, Inc., Croissy sur Sienne, France) (CorDynamics).
as §1, §2, §3
Immunohistochemistry. Dual α-SMA/Ki67 nuclear antigen: All IHC steps were performed on 3 μm-thick, formalin-fixed, paraffin-embedded (FFPE) sections on Leica Bond Rx automated immunohistochemistry stainer. The instrument was programmed to bake and dewax the slides. […]

hPASMC = assay: EdU cell proliferation assay, hPASMC; type: cell-based; settings: Homo sapiens, 5% FBS, N = 6, FIG. 1e, read-out: hPASMC IC50 (nM), inhibition of proliferation
Method: (§4) Alternatively, rather than using BrdU, EdU (5-ethynyl-2′-deoxyuridine) can be used. Cells were first pre-incubated with different concentrations of the CDK inhibitor for 30 minutes, and then 5% FBS was added to stimulate cell proliferation. Cells were maintained for 24 h before the proliferation rate was evaluated using EDU Click-iT EdU Alexa Fluor® 647 HCS Assay (Thermofisher Scientific, USA). EdU was added to the medium 16 h before the quantification of EdU incorporation. Proliferation was quantified by scanning the 96-well plates using automated high content imaging platform equipped with appropriate fluorescence microscopic filters for DAPI (4′,6-Diamidino-2-Phenylindole) or Hoechst stain and Cyanine5 dyes as part of the Click-iT assay. Proliferating EdU positive cells detected at Cyanine5 were quantified and normalized to total cell number per well where the total cell number per cell was identified by DAPI or Hoechst signal. The % effect was then calculated:
(§5) The average (avg) amount (amt) of proliferating cells per concentration of CDK inhibitor with FBS present.
(§6) The minimum amount of proliferation (min amt of prolif'n) is based on cell numbers in the wells where FBS is not added and no CDK inhibitor is present.
(§7) The maximum amount of proliferation (max amt of prolif'n) is based on cell numbers in the wells where FBS is added and no CDK inhibitor is present.

hPAAF = assay: EdU cell proliferation assay, hPAAF; type: cell-based; settings: Homo sapiens, 5% FBS, N = 6, FIG. 1f, read-out: hPAAF IC50 (nM), inhibition of proliferation
Method: as §4, §5, §6, §7

rPASMC = assay: EdU cell proliferation assay, rPASMC; type: cell-based; settings: Rattus norvegicus, 5% FBS, N = 6, FIG. 1g, read-out: rPASMC IC50 (nM), inhibition of proliferation
Method: as §4, §5, §6, §7

phospho-Rb (Ser807/811) = assay: In-cell western analysis of Rb phosphorylation in human PASMCs; type: cell-based; settings: Homo sapiens, PASMC; 10% FBS; N = 6; FIG. 2c; read-out: Average IC50 (nM), inhibition of phosphorylation of Rb in hPASMCs
Method: In-cell western analysis. Primary PASMCs from normal human subjects were cultured and serum-starved as described above. Cells were first pre-incubated with different concentrations of palbociclib for 60 minutes, and then either 5% FBS or 10% FBS or 30 ng/ml PDGF-BB was added to stimulate cell proliferation and Rb phosphorylation. The effect of Palbociclib on Rb phosphorylation was evaluated 24 h later, using in-cell western assay according to the manufacturer's instructions (Li-Cor Biosciences, Lincoln, Nebr., USA). Phosphorylated Rb was measured using a rabbit monoclonal antibody anti-phospho-Rb (Ser807/811) (Cell Signaling Technology, Inc., Danvers, Mass., USA), followed by detection with IRDye 800CW infrared fluorescent dye-labeled goat anti-rabbit secondary antibody. Actin levels were measured using mouse anti-actin monoclonal antibodies (pan Ab-5) (Fisher Scientific Pittsburgh, Pa., USA; Sigma Aldrich, St. Louis, Mo., USA), and followed by detection with IRDye 680RD-labeled goat anti-mouse secondary antibody. See FIG. 2a where 5% FBS was used, FIG. 2b where PDGF-BB was used, and FIG. 2c where 10% FBS was used.

[2] = day 0-28, score scale 0-5, FIG. 3g

Structure (SMILES) | lung weight vs vehicle/Su5416/Hx group (rat Su5416/Hx PAH model) | vessel-associated Ki67+ cells in the pulmonary vasculature (IHC) (rat Su5416/Hx PAH model) | vessel-associated pRb+ cells in the pulmonary vasculature (IHC) (rat Su5416/Hx PAH model) | MPAP (rat Su5416/Hx PAH model) | Fulton Index (rat Su5416/Hx PAH model) | muscularized intra-acinar vessel density relative to vehicle/Su5416/Hx group (rat Su5416/Hx PAH model) | DPAP (rat Su5416/Hx PAH model) | heart weight vs vehicle/Su5416/Hx group (rat Su5416/Hx PAH model) | average vessel wall thickness, intra-acinar and pre-acinar vessels (rat Su5416/Hx PAH model) | IC50 (hPASMC) [nM] | IC50 (hPAAF) [nM] | IC50 (rPASMC) [nM] | IC50 (phospho-Rb (Ser807/811)) [nM] | other results
CCCc1nn(C)c2c(=O)[nH]c(-c3cc(S(=O)(=O)N4CCN(C)CC4)ccc3OCC)nc12 [Sildenafil] | no change | no significant beneficial effect | no significant beneficial effect | significantly reduced | only a slight reduction | not statistically significantly different | significantly reduced | no change | not |  |  |  |  | density of fully muscularized intra-acinar vessels (αSMA staining) ([1]; day 0-28, FIG. 3e): effective; average vessel wall thickness relative to vehicle/MCT group ([1]; day 0-28, FIG. 3d): 0.76 x MCT; disease severity scores, mean [1, 2]: 2.5; disease severity scores, range [1, 2]: 1-4; average vessel wall thickness (elastin staining), intra-acinar and pre-acinar pulmonary arteries, relative to vehicle/MCT group ([1]; day 14-28, FIG. 3d): little effect; PAH-related increase in MPAP ([1]; dosed prophylactically day 0-28, sildenafil 50 mg/kg/dose PO BID, FIG. 3b): significantly reduced; PAH-related increase in Fulton Index ([1]; prophylactic day 0-28, FIG. 3c): significantly reduced; PAH-related increase in DPAP ([1]; prophylactic day 0-28, FIG. 3i): significantly reduced; PAH-related increase in heart weight ([1]; prophylactic day 0-28, FIG. 3j): significantly reduced; PAH-related increase in SPAP ([1]; prophylactic day 0-28, FIG. 3h): significantly reduced; DPAP ([1]; therapeutic day 14-28): small and non-significant reduction; Fulton Index ([1]; therapeutic day 14-28): small and non-significant reduction; MPAP ([1]; therapeutic day 14-28): small and non-significant reduction; SPAP ([1]; therapeutic day 14-28): small and non-significant reduction; heart weight ([1]; therapeutic day 14-28): small and non-significant reduction; SPAP (rat Su5416/Hx PAH model; days 7 to 28, FIG. 4h): significantly reduced
COC(=O)N(C)c1c(N)nc(-c2nn(Cc3ccccc3F)c3ncccc23)nc1N [Riociguat] | no change | no significant beneficial effect | no significant beneficial effect | significantly reduced | only a slight reduction | not statistically significantly different | significantly reduced | no change | not |  |  |  |  | 
CCN1CCN(Cc2ccc(Nc3ncc(F)c(-c4cc(F)c5nc(C)n(C(C)C)c5c4)n3)nc2)CC1 [Abemaciclib, 2-pyrimidinamine, N-(5-((4-ethyl-1-piperazinyl)methyl)-2-pyridinyl)-5-fluoro-4-(4-fluoro-2-methyl-1-(1-methylethyl)-1H-benzimidazol-6-yl)] |  |  |  |  |  |  |  |  |  | 6.5 | 1.2 | 13 | 262 | 
CN(C)C(=O)c1cc2cnc(Nc3ccc(N4CCNCC4)cn3)nc2n1C1CCCC1 [Ribociclib, 7-cyclopentyl-N, N-dimethyl-2-((5-(piperazin-1-yl)pyridin-2-yl)amino)-7H-pyrrolo[2,3-d]pyrimidine-6-carboxamide] |  |  |  |  |  |  |  |  |  | 0.5 | 0.8 | 28.6 | 352 | 
